Reference: ChEMBL document CHEMBL1201862, “PubChem BioAssay data set” (2004)
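How tested: cells in 96-well plates exposed to compound for 48 hours at five concentrations. Abbreviation: GI50, concentration required for 50% inhibition of growth.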 Activity calls are given as the source filed them. No stated cut-off is given here; in the data, active = GI50 up to about 1.1 µM and inactive = higher.

Key:
Test in all cases: NCI-60 cell line screen, 48 h
EKVX = system: EKVX
CCRF-CEM = system: CCRF-CEM
SN12C = system: SN12C
U-251 = system: U-251
TK-10 = system: TK-10
IGROV-1 = system: IGROV-1
LOX IMVI = system: LOX IMVI
K562 = system: K562
UACC-62 = system: UACC-62
HL-60 = system: HL-60
SF-295 = system: SF-295
OVCAR-3 = system: OVCAR-3
OVCAR-8 = system: OVCAR-8
OVCAR-5 = system: OVCAR-5
UACC-257 = system: UACC-257
HCT-116 = system: HCT-116
OVCAR-4 = system: OVCAR-4
SW-620 = system: SW-620
NCI/ADR-RES = system: NCI/ADR-RES

Row | SMILES | GI50 (EKVX) | GI50 (CCRF-CEM) | GI50 (SN12C) | GI50 (U-251) | GI50 (TK-10) | GI50 (IGROV-1) | GI50 (LOX IMVI) | GI50 (K562) | GI50 (UACC-62) | GI50 (HL-60) | GI50 (SF-295) | GI50 (OVCAR-3) | GI50 (OVCAR-8) | GI50 (OVCAR-5) | GI50 (UACC-257) | GI50 (HCT-116) | GI50 (OVCAR-4) | GI50 (SW-620) | GI50 (NCI/ADR-RES)
1 | CS/C(=N/C(=O)c1ccccc1Cl)SCCS/C(=N\C(=O)c1ccccc1Cl)SC | > 100 µM (inactive) | > 100 µM (inactive) | > 100 µM (inactive) | > 100 µM (inactive) | > 100 µM (inactive) | > 100 µM (inactive) | > 100 µM (inactive) | > 100 µM (inactive) | > 100 µM (inactive) | > 100 µM (inactive) | > 100 µM (inactive) | > 100 µM (inactive) | > 100 µM (inactive) | > 100 µM (inactive) | > 100 µM (inactive) | > 100 µM (inactive) | > 100 µM (inactive) | > 100 µM (inactive) | 
2 | COc1cccc(-c2c(-c3ccccc3)[nH]c(C)c2C(=O)ONC(=O)c2ccccc2)c1 | 6.78 µM (inactive) | 3.21 µM (inactive) | 3.4 µM (inactive) | 3.14 µM (inactive) | 9.08 µM (inactive) | 1.66 µM (inactive) | 1.89 µM (inactive) | 2.89 µM (inactive) | 13.8 µM (inactive) | 1.93 µM (inactive) | 2.55 µM (inactive) | 6.38 µM (inactive) | 5.18 µM (inactive) | 9.06 µM (inactive) | 13.5 µM (inactive) | 3.98 µM (inactive) | 5.05 µM (inactive) | 13.6 µM (inactive) | 8.93 µM (inactive)
3 | C/C(=N\NC(=N)N)C(CN1CCOCC1)C(c1ccccc1)c1c(O)c2ccccc2oc1=O (configuration not stated) | > 100 µM (inactive) | > 100 µM (inactive) | > 100 µM (inactive) | > 100 µM (inactive) | > 100 µM (inactive) | > 100 µM (inactive) | > 100 µM (inactive) | > 100 µM (inactive) | 81.3 µM (inactive) | 49.1 µM (inactive) | > 100 µM (inactive) | > 100 µM (inactive) | > 100 µM (inactive) | > 100 µM (inactive) | > 100 µM (inactive) | 90.6 µM (inactive) | 61.9 µM (inactive) | > 100 µM (inactive) | 
4 | CCOC(=O)C12CCSC1C1(C#N)C(C#N)=CC2(N=P(c2ccccc2)(c2ccccc2)c2ccccc2)n2c(=O)n(-c3ccccc3)c(=O)n21 (configuration not stated) | 82.2 µM (inactive) | 34.5 µM (inactive) | 62.2 µM (inactive) | 42.4 µM (inactive) | > 100 µM (inactive) | 59.8 µM (inactive) | 39.9 µM (inactive) | 33.9 µM (inactive) | 27.5 µM (inactive) | 26.1 µM (inactive) | 36.6 µM (inactive) | 25.4 µM (inactive) | 47.1 µM (inactive) | > 100 µM (inactive) | 33.6 µM (inactive) | 36.9 µM (inactive) | 21.9 µM (inactive) | 64 µM (inactive) | 
5 | OC1CC1Sc1ccccc1 (configuration not stated) | 70.1 µM (inactive) | 15.1 µM (inactive) | 24 µM (inactive) | 31.6 µM (inactive) | 59.7 µM (inactive) | 23.7 µM (inactive) | 28 µM (inactive) | 33.9 µM (inactive) | 33.3 µM (inactive) | 14.2 µM (inactive) | 24.5 µM (inactive) | 25.4 µM (inactive) | 28.4 µM (inactive) | 95.3 µM (inactive) | 52.5 µM (inactive) | 22.5 µM (inactive) | 30.5 µM (inactive) | 25.8 µM (inactive) | 
6 | Cc1ccc(S(=O)(=O)CC2(Br)CCc3ccccc3C2=O)cc1 (configuration not stated) | 43.1 µM (inactive) |  | 30.6 µM (inactive) | 21.4 µM (inactive) | 33 µM (inactive) | 17.5 µM (inactive) | 32 µM (inactive) | 5.89 µM (inactive) | 23 µM (inactive) | 17.3 µM (inactive) | 77.8 µM (inactive) | 45.3 µM (inactive) | 27.4 µM (inactive) | 51.1 µM (inactive) | 22.3 µM (inactive) | 47.1 µM (inactive) | 27.7 µM (inactive) | 18 µM (inactive) | 48.9 µM (inactive)
7 | CCN(CCCl)CCCCCNc1c2ccccc2nc2ccc(OC)cc12 | 3.79 µM (inactive) | 0.0857 µM (active) | 0.232 µM (active) | 0.603 µM (active) | 7.66 µM (inactive) | 0.578 µM (active) | 0.178 µM (active) | 0.149 µM (active) | 0.402 µM (active) | 0.0411 µM (active) | 1.47 µM (inactive) | 1.83 µM (inactive) | 0.533 µM (active) | 1.55 µM (inactive) | 3.22 µM (inactive) | 0.221 µM (active) | 1.01 µM (active) | 0.154 µM (active) | 
